Literature values in patent US20090238867A1, “Nanoparticulate Anidulafungin Compositions and Methods for Making the Same” (priority 2007, published 2009).
Read-outs that look alike come from different tables or passages of the source. Numbered stars: 1 amine (or outer) side, 2 acyl side, 3 side chain; on linkers, the order of the positions; unused ones are H or OH. Bridge positions count the residues as written; N and C are the ends. Square brackets hold non-standard residues; d marks the D form. Peptide text beside a SMILES is read from it. * marks the point of attachment. ξ: configuration not given here. pTerphenylCO(4''-OnC5H11) = CCCCCOc1ccc(-c2ccc(-c3ccc(C(=O)*)cc3)cc2)cc1; Orn(4R-OH,5R-OH) = O=C([C@H](C[C@@H](O)[C@@H](O)N[*:3])N[*:1])[*:2]; hTyr(3S-OH,4S-OH) = N[C@H](C(=O)O)[C@H](O)[C@@H](O)c1ccc(O)cc1; Pro(3S-OH,4S-Me) = C[C@H]1CN[C@H](C(=O)O)[C@H]1O; Hyp = O=C(O)[C@@H]1C[C@@H](O)CN1; ξThr(3R) = C[C@@H](O)C(N)C(=O)O

Tests used:
[1] = system: fluconazole-resistant C. albicans; settings: immunosuppressed rabbits
Candida albicans [2] = settings: parenteral; immunocompetent and immunosuppressed mice, disseminated infection
Candida albicans [3] = system: Candida albicans
[4] = IV
[5] = system: cytochrome P450 (CYP450) isoenzymes
glucan synthase = settings: enzyme present in fungal, not mammalian cells
Candida albicans [6] = settings: parenteral; immunocompetent and immunosuppressed rabbits, disseminated infection

## CCCCCOc1ccc(-c2ccc(-c3ccc(C(=O)N[C@H]4C[C@@H](O)[C@@H](O)NC(=O)[C@@H]5[C@@H](O)[C@@H](C)CN5C(=O)[C@H]([C@@H](C)O)NC(=O)[C@H]([C@H](O)[C@@H](O)c5ccc(O)cc5)NC(=O)[C@@H]5C[C@@H](O)CN5C(=O)C([C@@H](C)O)NC4=O)cc3)cc2)cc1 (stereo partly drawn) [anidulafungin, 1-[(4R,5R)-4,5-Dihydroxy-N^2-[[4″-(pentyloxy)[1,1′:4′,1″-terphenyl]-4-yl]carbonyl]-L-ornithine]echinocandin B] ({pTerphenylCO(4''-OnC5H11)}-[Orn(4R-OH,5R-OH)][ξThr(3R)][Hyp][hTyr(3S-OH,4S-OH)]T[Pro(3S-OH,4S-Me)]; lactam 1-C)
[1]
  mycological burden: reduces the mycological burden
Candida albicans [2]
  efficacy as prolonged survival and reduction in mycological burden: effective
Candida albicans [3]
  in vitro activity: active
C. tropicalis
  in vitro activity: active
C. parapsilosis
  in vitro activity: active
[4]
  clearance: about 1 L/h
  distribution half-life: 0.5 to 1 h
  intersubject variability of systemic exposure (coefficient of variation): < 25%
  systemic exposures, dose dependence: dose proportional
  terminal elimination half-life: 40 to 50 h
  volume of distribution: 30 to 50 L
[4]; after loading dose twice the daily maintenance dose
  estimated plasma accumulation factor at steady state: approximately 2
Candida; patients with candidemia and/or other forms of invasive candidiasis
  clinical effectiveness: effectiveness
Candida; patients with esophageal candidiasis
  clinical effectiveness: effectiveness
[5]
  substrate, inducer or inhibitor of CYP450 isoenzymes: not a clinically relevant substrate, inducer, or inhibitor
ethanol
  solubility in ethanol: slightly soluble
water
  solubility in water: practically insoluble
Glucan synthase
  inhibition of glucan synthase: inhibits
C. glabrata
  in vitro activity: active
Candida albicans [6]
  efficacy as prolonged survival and reduction in mycological burden: effective
Human plasma proteins
  bound to human plasma proteins: > 99%
